# Measured values from patent publication US10898567B2, “Synthetic long peptides (SLP) for therapeutic vaccination against Hepatitis B virus infection” (priority 2014, dated 2021).
# System: PBMC derived from HBV-immune donors
# Type: cell-based, human
# Details: six HBV-immune donors; for positive IFNγ response (SI>3) in HBV-immune donors / IFNγ response in multiple HBV-immune donors: IFNγ-ELISpot; for average SI of the IFNγ-responses: PBMC pre-stimulated with 3 nmol/ml peptide for 72 hours; for IFNγ response in multiple HBV-immune donors: SI>3
# Experimental: To detect antigen-specific IFNγ-producing human T cells, the PBMC were first pre-stimulated with 3 nmol/ml of the indicated peptide for 72 hours at 37° C. […] After stimulation of the PBMC, the coating antibody was aspirated from the plate, and washed 4 times with PBS. To block aspecific binding, 100 μl of IMDM containing 8% FCS was added to all wells and incubated at 37° C. for 1 hour. In the meantime, stimulated PBMC were harvested, centrifuged, resuspended in X-vivo 15 medium (Lonza) and counted. […] The medium in the wells of the PVDF plate was aspirated and 100 μl of each PBMC sample was added to the plate in quadruplicates. The plates were incubated at 37° C. overnight. The next day, the supernatant was discarded and plates are washed 6 times with PBS/Tween20 0.05%. […] Next, plates were washed 6 times using PBS/Tween20 0.05% and 1 μg/ml Extravidin-Alkaline phosphatase (ALP) (Sigma-Aldrich) was added to all wells (100 μl/well) in PBS with 1% FBS. The plates were incubated for 1 hour at RT. ALP substrate solution BCIP/NBT-plus (Mabtech) was prepared and 100 μl/well was added to all wells after the plates were washed 4 times with PBS/Tween20 0.05%. To terminate the colorimetric reaction (after 1-20 minutes), tap water was used to wash the plates extensively. After drying, the formed spots were measured on a Biosys Bioreader 5000.
# To assess the relevance of the selected vaccine peptides for the clearance of a naturally occurring HBV infection, we tested the presence of T cell responses against the 13 selected HBV peptides in PBMC derived from six HBV-immune donors. After isolation of the PBMC, cells were stimulated with each of the 13 peptides and an IFNγ-ELISpot was performed to detect T cell responses.
Sequence,positive IFNγ response (SI>3) in HBV-immune donors,average SI of the IFNγ-responses,IFNγ response in multiple HBV-immune donors
ALPSPSPSAVPADHGAHLSLRGLPVCAFSSAGP [SLP26],Responses were observed,1.56,–
CAFSSAGPCALRFTSARRMETTVNAHQILPKVLHK [SLP27],Responses were observed,–,–
DPASRDLVVNYVNTNVGLKIRQLLWFHISCLTFGR (HBV Core aa 107 - 141 (SLP No. 24)) [SLP24],Responses were observed,2.54,induced responses in multiple donors
HDSCSRQLYVSLMLLYKTYGWKLHLYSHPIVLGF (HBV Polymerase aa 481 - 514 (SLP No. 13)) [SLP13],Responses were observed,2.44,induced responses in multiple donors
MPLSYQHFRKLLLLDDGTEAGPLEEELPRL (HBV Polymerase aa 1 - 30 (SLP No. 1)) [SLP1],–,1.21,–
NLLSSNLSWLSLDVSAAFYHIPLHPAAMPHLLIGSSGL (HBV Polymerase aa 419 - 456 (SLP No. 10)) [SLP10],Responses were observed,2.40,induced responses in multiple donors
SPFLLAQFTSAICSVVRRAFPHCLAFSYMDDVVLGA (HBV Polymerase aa 524 - 559 (SLP No. 14)) [SLP14],Responses were observed,1.97,–
SSWAFAKYLWEWASVRFSWLSLLVPFVQWFV (HBV large surface protein aa 328-358) [SLP34],Responses were observed,3.02,induced responses in multiple donors
VVNHYFQTRHYLHTLWKAGILYKRETTRSASFCGSPYSW (HBV Polymerase aa 139 - 177 (SLP No. 5)) [SLP5],Responses were observed,2.11,–
YPALMPLYACIQAKQAFTFSPTYKAFLSKQYMNLYPVAR (HBV Polymerase aa 653 - 691 (SLP No. 18)) [SLP18],Responses were observed,1.86,–
